According to US8481481B2, “Peptides and their use as carriers into cancer cells” (Advanced Accelerator Applications S.A., priority 2008, dated 2013):
Peptide text beside a SMILES is read from it. * marks the point of attachment. X1 = O=C(C[NH+]1CC[NH2+][Pt-2]1([Cl])[Cl])*

Legend:
MCF-7 cells = assay: Quantitative determination by atomic absorption of cisplatin transported into tumour cells; assay type: cell-based, human
Protocol: The target cells MCF-7 were trypsinized, washed twice with buffered solution (PBS) and treated with 50 μl of 35% HNO3 for 16 hours. The platin content was determined by subjecting the samples to atomic absorption with an Analyst 800 instrument, by Perkin-Elmer, Norwalk, Conn., USA, using the following parameters: pre-treatment temperature, 1300° C.; atomization temperature, 2200° C.; using as the matrix modifier a composition of 0.015 mg of […] with 0.01 mg of Mg(NO3)2. The measurements were performed using the “Zeeman-effect background” correction system with Pyrolytic graphite-coated THGA tube (Perkin Elmer) and an integrated Lvov-type platform was used for metal determination. As standard solution we used a 2.5% HNO3 solution (Spectrascan) to obtain three reference points on the calibration curve.

Bax gene, normal cells = assay: Bax gene expression in normal cells (FIG. 2); assay type: cell-based
Description: FIG. 2 confirms the apoptotic action of the rMnSOD-Lp-CC complex on various cell lines.
In the experiment, actin cDNA was inserted as control of quantitative DNA expression; to note that again in this case (a) indicates untreated cells, (b) indicates cells treated with the leader peptide of rMnSOD (b), and (c) indicates cells treated with the leader peptide conjugated to cisplatin.

[1] = test system: tumour cell lines (MCF7, M1735, MRC5 and A2780); assay: Immunocytochemistry with anti-leader peptide antibody on treated cell lines (FIG. 1); assay type: cell-based, human; conditions: immunohistochemical reaction, three hours of incubation
Protocol: The target cells (MCF-7) in continuous culture, derived from a mammary tumour of human origin, were incubated for three hours in the presence or absence of: (a) 24-amino acid leader peptide of rMnSOD-Lp-CC not conjugated to any other molecules, (b) 24-amino acid leader peptide conjugated to cisplatin.
After incubation, the cells were fixed with Zamboni fixative (solution composed of 4% paraformaldehyde+15% picric acid) for 60 minutes and washed with PBS. The cells were then maintained in PBS containing 0.3% hydrogen peroxide, with the aim of blocking endogenous peroxidases. The polyclonal antibody (anti-leader peptide of rMnSOD obtained from rabbit), diluted 1/200 was then added to the cells and left for 1 hour at ambient temperature. To develop the reaction, a DAKO SLAB Peroxidase K0679 kit was used.

tumour cells = conditions: recent study, state of the art; cited from earlier work

For `N.N.[Cl][Pt][Cl]` [Cisplatin, cisplatin], the “quantity of Pt, MCF-7 Pellet” value (MCF-7 cells; MCF-7 Pellet, atomic absorption) was 2.3 ng-Pt ng Pt, the “quantity of cisplatin, MCF-7 Solution” value (MCF-7 cells; MCF-7 Solution, atomic absorption) was “Cisplatin 8.7 μg/l” and the “quantity of Pt, MCF-7 Solution” value (MCF-7 cells; MCF-7 Solution, atomic absorption, value in brackets) was “(3.5 μg Pt)”.

For `CSCC[C@H](NC(=O)C[NH+]1CC[NH2+][Pt-2]1([Cl])[Cl])C(=O)N[C@@H](CC(C)C)C(=O)N[C@@H](CO)C(=O)N[C@@H](CCCNC(=N)N)C(=O)N[C@@H](C)C(=O)N[C@H](C(=O)N[C@@H](CS)C(=O)NCC(=O)N[C@H](C(=O)N[C@@H](CO)C(=O)N[C@@H](CCCNC(=N)N)C(=O)N[C@@H](CCC(N)=O)C(=O)N[C@@H](CC(C)C)C(=O)N[C@@H](C)C(=O)N1CCC[C@H]1C(=O)N[C@@H](C)C(=O)N[C@@H](CC(C)C)C(=O)NCC(=O)N[C@@H](Cc1ccc(O)cc1)C(=O)N[C@@H](CC(C)C)C(=O)NCC(=O)N[C@@H](CO)C(=O)N[C@@H](CCCNC(=N)N)C(=O)N[C@@H](CCC(N)=O)C(=O)O)[C@@H](C)O)C(C)C` (some centres unmarked) [rMnSOD-Lp-CC] (X1-MLSRAVCGTSRQLAPALGYLGSRQ-OH), the “toxic reaction / Bax gene expression” value (Bax gene, normal cells) was “does not induce any toxic reaction”.

For “MLSRAVCGTSRQLAPALGYLGSRQ [leader peptide of rMnSOD]”, the “penetration into tumour cells / cell damage” value [1] was “penetrated tumour cells without damaging the cells” and the “quantity of cisplatin transported into cells relative to cisplatin alone” value (MCF-7 cells; tumour cells, Table 1) was “double”.

B1: LSA-type-MnSOD: manganese superoxide dismutase secreted by a liposarcoma cell line, 30 kDa (protein, UniProt P04179 25-222, looked up)
Superoxide dismutase [Mn], …: KHSLPDLPYDYGALEPHINAQIMQLHHSKHHAAYVNNLNVTEEKYQEALAKGDVTAQIALQPALKFNGGGHINHSIFWTNLSPNGGGEPKGELLEAIKRDFGSFDKFKEKLTAASVGVQGSGWGWLGFNKERGHLQIAACPNQDPLQGTTGLIPLLGIDVWEHAYYLQYKNVRPDYLKAIWNVINWENVTERYMACKK
For B1, the “cytotoxicity to tumour cells” value (tumour cells) is listed as “cytotoxic specifically and selectively to tumour cells”.

B2: rMnSOD: recombinant form of LSA-type-MnSOD produced by specific cDNA clones (protein, UniProt P04179 25-222, looked up)
Superoxide dismutase [Mn], …: B1 Superoxide dismutase [Mn], …
In the case of B2, the “cytotoxicity to tumour cells” value (tumour cells) is listed as “retain the structural and oncotoxic properties of the native protein”.
